Results: patent US9475775B2, “Benzazepine dicarboxamide compounds” (Hoffmann-La Roche Inc., priority 2015, dated 2016)

Key:
human TLR8 = human TLR8 (Homo sapiens (Human), UniProt Q9NR97); experiment: HEK-Blue human TLR8 cells, NF-κB SEAP reporter assay; assay type: cell-based; settings: stimulation for 20 hours
Description: (§1) For TLR8 and TLR7 activity testing, HEK-Blue human TLR8 or TLR7 cells (Invivogen, San Diego, Calif., USA) are used, respectively. These cells are designed for studying the stimulation of human TLR8 or TLR7 by monitoring the activation of NF-κB. A SEAP (secreted embryonic alkaline phosphatase) reporter gene is placed under the control of the IFN-b minimal promoter fused to five NF-κB and AP-1-binding sites. Therefore the reporter expression is regulated by the NF-κB promoter upon stimulation of human TLR8 or TLR7 for 20 hours. The cell culture supernatant SEAP reporter activity was determined using Quanti Blue kit (Invivogen, San Diego, Ca, USA) at a wavelength of 640 nm, a detection medium that turns purple/blue in the presence of alkaline phosphatase. EC50 values were determined using Activity Base analysis (ID Business Solution, Limited).

human TLR7 = human TLR7 (Homo sapiens (Human), UniProt Q9NYK1); experiment: HEK-Blue human TLR7 cells, NF-κB SEAP reporter assay; assay type: cell-based; settings: stimulation for 20 hours
Description: as §1

Sequence of human TLR8 (Q9NR97 27-1041): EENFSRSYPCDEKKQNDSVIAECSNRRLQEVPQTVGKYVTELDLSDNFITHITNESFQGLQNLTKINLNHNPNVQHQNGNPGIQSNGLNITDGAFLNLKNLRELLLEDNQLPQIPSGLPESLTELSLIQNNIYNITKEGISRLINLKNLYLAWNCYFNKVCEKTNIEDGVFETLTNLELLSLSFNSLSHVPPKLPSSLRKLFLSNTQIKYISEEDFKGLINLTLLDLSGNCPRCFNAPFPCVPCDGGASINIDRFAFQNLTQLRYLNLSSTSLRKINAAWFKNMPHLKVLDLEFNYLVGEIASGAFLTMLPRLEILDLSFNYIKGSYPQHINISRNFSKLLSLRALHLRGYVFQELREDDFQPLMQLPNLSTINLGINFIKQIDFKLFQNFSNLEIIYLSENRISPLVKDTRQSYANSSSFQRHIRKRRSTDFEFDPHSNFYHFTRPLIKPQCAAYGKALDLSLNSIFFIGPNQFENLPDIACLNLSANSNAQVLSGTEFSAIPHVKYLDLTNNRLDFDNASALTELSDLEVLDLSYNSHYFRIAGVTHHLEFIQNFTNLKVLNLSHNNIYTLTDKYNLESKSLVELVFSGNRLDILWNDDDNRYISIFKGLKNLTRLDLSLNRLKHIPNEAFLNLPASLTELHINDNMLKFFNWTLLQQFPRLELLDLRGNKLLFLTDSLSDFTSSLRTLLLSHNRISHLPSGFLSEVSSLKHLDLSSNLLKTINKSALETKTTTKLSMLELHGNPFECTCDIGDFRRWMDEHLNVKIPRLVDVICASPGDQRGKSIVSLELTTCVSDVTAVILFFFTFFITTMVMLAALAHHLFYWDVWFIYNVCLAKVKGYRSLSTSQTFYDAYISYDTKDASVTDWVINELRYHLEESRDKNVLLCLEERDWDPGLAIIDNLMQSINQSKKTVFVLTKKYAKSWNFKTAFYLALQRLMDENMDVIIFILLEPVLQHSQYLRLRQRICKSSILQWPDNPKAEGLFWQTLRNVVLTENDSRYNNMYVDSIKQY
Sequence of human TLR7 (Q9NYK1 27-1049): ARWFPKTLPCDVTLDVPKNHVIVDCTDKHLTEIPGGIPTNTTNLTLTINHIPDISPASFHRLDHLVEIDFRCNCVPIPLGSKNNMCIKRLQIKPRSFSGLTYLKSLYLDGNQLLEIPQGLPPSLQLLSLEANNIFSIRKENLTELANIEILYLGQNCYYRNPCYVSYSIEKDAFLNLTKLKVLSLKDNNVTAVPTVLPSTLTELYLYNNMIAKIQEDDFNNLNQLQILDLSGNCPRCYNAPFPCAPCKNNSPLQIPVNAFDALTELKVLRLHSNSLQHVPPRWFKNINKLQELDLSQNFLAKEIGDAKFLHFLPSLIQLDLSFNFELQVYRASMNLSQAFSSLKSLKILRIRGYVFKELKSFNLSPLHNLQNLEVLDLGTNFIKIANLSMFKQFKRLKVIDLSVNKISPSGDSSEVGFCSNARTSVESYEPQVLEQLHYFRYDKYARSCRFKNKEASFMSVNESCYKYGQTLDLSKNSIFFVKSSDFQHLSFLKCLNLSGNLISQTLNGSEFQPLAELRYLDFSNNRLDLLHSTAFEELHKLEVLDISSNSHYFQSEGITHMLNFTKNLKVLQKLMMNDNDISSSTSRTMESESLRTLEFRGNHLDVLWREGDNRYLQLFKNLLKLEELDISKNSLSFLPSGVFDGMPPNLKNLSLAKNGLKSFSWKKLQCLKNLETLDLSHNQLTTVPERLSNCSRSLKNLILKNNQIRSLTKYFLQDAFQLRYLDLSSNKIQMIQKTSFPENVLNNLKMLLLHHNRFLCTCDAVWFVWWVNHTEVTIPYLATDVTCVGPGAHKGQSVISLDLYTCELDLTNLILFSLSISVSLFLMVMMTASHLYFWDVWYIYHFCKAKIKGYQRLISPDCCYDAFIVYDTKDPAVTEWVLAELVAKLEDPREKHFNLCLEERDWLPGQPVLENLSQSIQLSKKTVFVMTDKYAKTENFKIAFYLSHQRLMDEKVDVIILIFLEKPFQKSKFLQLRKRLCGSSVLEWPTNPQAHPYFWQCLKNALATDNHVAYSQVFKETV

SMILES	EC50 (human TLR8) [nM]	EC50 (human TLR7) [nM]
CCCN(CCC)C(=O)C1=Cc2ccc(C(=O)Nc3cccnc3)cc2N=C(N)C1 [Example 1, 2-Amino-N4,N4-dipropyl-N8-(3-pyridyl)-3H-1-benzazepine-4,8-dicarboxamide]	1	80800
CCCN(CCC)C(=O)C1=Cc2ccc(C(=O)Nc3ccccc3)cc2N=C(N)C1 [Example 4, 2-Amino-N8-phenyl-N4,N4-dipropyl-3H-1-benzazepine-4,8-dicarboxamide]	7	> 100000
CCCN(CCC)C(=O)C1=Cc2ccc(C(=O)Nc3cncc(CO)c3)cc2N=C(N)C1 [Example 6, 2-Amino-N8-[5-(hydroxymethyl)-3-pyridyl]-N4,N4-dipropyl-3H-1-benzazepine-4,8-dicarboxamide]	8	> 100000
CCCN(CCC)C(=O)C1=Cc2ccc(C(=O)Nc3ccc(CO)nc3)cc2N=C(N)C1 [Example 7, 2-Amino-N8-[6-(hydroxymethyl)-3-pyridyl]-N4,N4-dipropyl-3H-1-benzazepine-4,8-dicarboxamide]	15	> 100000
CCCN(CCC)C(=O)C1=Cc2ccc(C(=O)Nc3cccc(S(C)(=O)=O)c3)cc2N=C(N)C1 [Example 8, 2-Amino-N8-(3-methylsulfonylphenyl)-N4,N4-dipropyl-3H-1-benzazepine-4,8-dicarboxamide]	10	44000
CCCN(CCC)C(=O)C1=Cc2ccc(C(=O)Nc3cncs3)cc2N=C(N)C1 [Example 9, 2-Amino-N4,N4-dipropyl-N8-thiazol-5-yl-3H-1-benzazepine-4,8-dicarboxamide]	3	> 100000
CCCN(CCC)C(=O)C1=Cc2ccc(C(=O)Nc3nccs3)cc2N=C(N)C1 [Example 11, 2-Amino-N4,N4-dipropyl-N8-thiazol-2-yl-3H-1-benzazepine-4,8-dicarboxamide]	29	> 100000
CCCN(CCC)C(=O)C1=Cc2ccc(C(=O)Nc3ccc(F)cc3)cc2N=C(N)C1 [Example 13, 2-Amino-N8-(4-fluorophenyl)-N4,N4-dipropyl-3H-1-benzazepine-4,8-dicarboxamide]	7	> 100000
CCCN(CCC)C(=O)C1=Cc2ccc(C(=O)Nc3cccc(C)c3)cc2N=C(N)C1 [Example 14, 2-Amino-N8-(m-tolyl)-N4,N4-dipropyl-3H-1-benzazepine-4,8-dicarboxamide]	1	> 100000
CCCN(CCC)C(=O)C1=Cc2ccc(C(=O)Nc3cccc(C(=O)N4CCCC4)c3)cc2N=C(N)C1 [Example 15, 2-Amino-N4,N4-dipropyl-N8-[3-(pyrrolidine-1-carbonyl)phenyl]-3H-1-benzazepine-4,8-dicarboxamide]	2	> 100000
CCCN(CCC)C(=O)C1=Cc2ccc(C(=O)Nc3cncc(C(=O)N4CCCC4)c3)cc2N=C(N)C1 [Example 16, 2-Amino-N4,N4-dipropyl-N8-[5-(pyrrolidine-1-carbonyl)-3-pyridyl]-3H-1-benzazepine-4,8-dicarboxamide]	14	> 100000
CCCN(CCC)C(=O)C1=Cc2ccc(C(=O)Nc3cc(C)cc(C)c3)cc2N=C(N)C1 [Example 23, 2-Amino-N8-(3,5-dimethylphenyl)-N4,N4-dipropyl-3H-1-benzazepine-4,8-dicarboxamide]	1	> 100000
CCCN(CCCO)C(=O)C1=Cc2ccc(C(=O)Nc3cccc(C)c3)cc2N=C(N)C1 [Example 26, 2-Amino-N4-(3-hydroxypropyl)-N8-(m-tolyl)-N4-propyl-3H-1-benzazepine-4,8-dicarboxamide]	2	> 100000
CCCN(CCC)C(=O)C1=Cc2ccc(C(=O)Nc3ccc(C)cc3)cc2N=C(N)C1 [Example 28, 2-Amino-N4,N4-dipropyl-N8-(p-tolyl)-3H-1-benzazepine-4,8-dicarboxamide]	1	> 100000
CCCN(CCC)C(=O)C1=Cc2ccc(C(=O)Nc3cccc(CC)c3)cc2N=C(N)C1 [Example 29, 2-Amino-N8-(3-ethylphenyl)-N4,N4-dipropyl-3H-1-benzazepine-4,8-dicarboxamide]	1	> 100000
CCCN(CCC)C(=O)C1=Cc2ccc(C(=O)Nc3cccc(OC)c3)cc2N=C(N)C1 [Example 30, 2-Amino-N8-(3-methoxyphenyl)-N4,N4-dipropyl-3H-1-benzazepine-4,8-dicarboxamide]	2	> 100000
CCCN(CCC)C(=O)C1=Cc2ccc(C(=O)Nc3cccc(Cl)c3)cc2N=C(N)C1 [Example 32, 2-Amino-N8-(3-chlorophenyl)-N4,N4-dipropyl-3H-1-benzazepine-4,8-dicarboxamide]	2	> 100000
CCCN(CCC)C(=O)C1=Cc2ccc(C(=O)Nc3cncc(CN)c3)cc2N=C(N)C1 [Example 33, 2-Amino-N8-[5-(aminomethyl)-3-pyridyl]-N4,N4-dipropyl-3H-1-benzazepine-4,8-dicarboxamide]	2	> 100000
CCCN(CCC)C(=O)C1=Cc2ccc(C(=O)Nc3ccc(OCC)nc3)cc2N=C(N)C1 [Example 35, 2-Amino-N8-(6-ethoxy-3-pyridyl)-N4,N4-dipropyl-3H-1-benzazepine-4,8-dicarboxamide]	1	> 100000

More lines, in order of falling EC50 (human TLR8), values ahead:

EC50 (human TLR8) [nM]	EC50 (human TLR7) [nM]	SMILES
21	> 100000	CCCN(CCC)C(=O)C1=Cc2ccc(C(=O)Nc3cccnc3C)cc2N=C(N)C1 [Example 21, 2-Amino-N8-(2-methyl-3-pyridyl)-N4,N4-dipropyl-3H-1-benzazepine-4,8-dicarboxamide]
18	> 100000	CCCN(CCC)C(=O)C1=Cc2ccc(C(=O)Nc3ccc(CCN)cc3)cc2N=C(N)C1 [Example 25, 2-Amino-N8-[4-(2-aminoethyl)phenyl]-N4,N4-dipropyl-3H-1-benzazepine-4,8-dicarboxamide]
13	70100	CCCN(CCC)C(=O)C1=Cc2ccc(C(=O)Nc3ccncc3)cc2N=C(N)C1 [Example 3, 2-Amino-N4,N4-dipropyl-N8-(4-pyridyl)-3H-1-benzazepine-4,8-dicarboxamide]
9	> 100000	CCCN(CCC)C(=O)C1=Cc2ccc(C(=O)Nc3ccc(CN)cc3)cc2N=C(N)C1 [Example 24, 2-Amino-N8-[4-(aminomethyl)phenyl]-N4,N4-dipropyl-3H-1-benzazepine-4,8-dicarboxamide]
6	> 100000	CCCN(CCC)C(=O)C1=Cc2ccc(C(=O)Nc3cccc(CCN)c3)cc2N=C(N)C1 [Example 17, 2-Amino-N8-[3-(2-aminoethyl)phenyl]-N4,N4-dipropyl-3H-1-benzazepine-4,8-dicarboxamide]
5	> 100000	CCCN(CCC)C(=O)C1=Cc2ccc(C(=O)Nc3cccc(F)c3)cc2N=C(N)C1 [Example 19, 2-Amino-N8-(3-fluorophenyl)-N4,N4-dipropyl-3H-1-benzazepine-4,8-dicarboxamide]
5	28000	CCCN(CCC)C(=O)C1=Cc2ccc(C(=O)Nc3ccccc3C)cc2N=C(N)C1 [Example 27, 2-Amino-N8-(o-tolyl)-N4,N4-dipropyl-3H-1-benzazepine-4,8-dicarboxamide]
5	> 100000	CCCN(CCC)C(=O)C1=Cc2ccc(C(=O)Nc3cccc(C(F)(F)F)c3)cc2N=C(N)C1 [Example 31, 2-Amino-N4,N4-dipropyl-N8-[3-(trifluoromethyl)phenyl]-3H-1-benzazepine-4,8-dicarboxamide]
4	> 100000	CCCN(CCC)C(=O)C1=Cc2ccc(C(=O)Nc3cncn3C)cc2N=C(N)C1 [Example 12, 2-Amino-N8-(3-methylimidazol-4-yl)-N4,N4-dipropyl-3H-1-benzazepine-4,8-dicarboxamide]
3	> 100000	CCCN(CCC)C(=O)C1=Cc2ccc(C(=O)Nc3ccc(CN)nc3)cc2N=C(N)C1 [Example 5, 2-Amino-N8-[6-(aminomethyl)-3-pyridyl]-N4,N4-dipropyl-3H-1-benzazepine-4,8-dicarboxamide]
3	46000	CCCN(CCC)C(=O)C1=Cc2ccc(C(=O)Nc3cncc(F)c3)cc2N=C(N)C1 [Example 20, 2-Amino-N8-(5-fluoro-3-pyridyl)-N4,N4-dipropyl-3H-1-benzazepine-4,8-dicarboxamide]
3	> 100000	CCCN(CCC)C(=O)C1=Cc2ccc(C(=O)Nc3ccc(C)nc3)cc2N=C(N)C1 [Example 22, 2-Amino-N8-(6-methyl-3-pyridyl)-N4,N4-dipropyl-3H-1-benzazepine-4,8-dicarboxamide]
2	> 100000	CCCN(CCC)C(=O)C1=Cc2ccc(C(=O)Nc3ccc(Cl)cc3)cc2N=C(N)C1 [Example 10, 2-Amino-N8-(4-chlorophenyl)-N4,N4-dipropyl-3H-1-benzazepine-4,8-dicarboxamide]
2	34000	CCCN(CCC)C(=O)C1=Cc2ccc(C(=O)Nc3cncc(C)c3)cc2N=C(N)C1 [Example 18, 2-Amino-N8-(5-methyl-3-pyridyl)-N4,N4-dipropyl-3H-1-benzazepine-4,8-dicarboxamide]
2	> 100000	CCCN(CCC)C(=O)C1=Cc2ccc(C(=O)Nc3ccnnc3)cc2N=C(N)C1 [Example 34, 2-Amino-N4,N4-dipropyl-N8-pyridazin-4-yl-3H-1-benzazepine-4,8-dicarboxamide]
1	> 100000	CCCN(CCC)C(=O)C1=Cc2ccc(C(=O)Nc3cncnc3)cc2N=C(N)C1 [Example 2, 2-Amino-N4,N4-dipropyl-N8-pyrimidin-5-yl-3H-1-benzazepine-4,8-dicarboxamide]
